{
  "source": "paper PMC8800111",
  "about": "(The Journal of Biological Chemistry, 2021)",
  "type_in_all_cases": "cell-based",
  "key": {"[1]": {"target": "proteins of U3A human fibrosarcoma cells (4462 proteins detected) (Homo sapiens, UniProt O14965)", "conditions": "protein AURKA; soluble abundance after heat, U3A cells"}, "[2]": {"target": "proteins of U3A human fibrosarcoma cells (4462 proteins detected) (Homo sapiens, UniProt O14972)", "sequence (O14972 whole entry)": "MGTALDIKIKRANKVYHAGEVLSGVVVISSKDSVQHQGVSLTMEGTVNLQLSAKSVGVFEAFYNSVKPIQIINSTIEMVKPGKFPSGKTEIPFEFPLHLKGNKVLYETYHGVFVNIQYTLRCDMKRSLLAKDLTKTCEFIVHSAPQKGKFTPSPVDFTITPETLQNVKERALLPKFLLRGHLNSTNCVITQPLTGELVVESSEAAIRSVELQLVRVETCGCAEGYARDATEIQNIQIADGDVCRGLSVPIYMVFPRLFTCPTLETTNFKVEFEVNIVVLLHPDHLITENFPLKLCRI", "conditions": "protein DSCR3; U3A, 10 μM, 2 h"}, "[3]": {"target": "proteins of U3A human fibrosarcoma cells (4462 proteins detected) (Homo sapiens, UniProt O75909)", "conditions": "protein CCNK; U3A cells"}, "[4]": {"target": "proteins of U3A human fibrosarcoma cells (4462 proteins detected) (Homo sapiens, UniProt P00568)", "conditions": "protein AK1, U3A cells"}, "[5]": {"target": "proteins of U3A human fibrosarcoma cells (4462 proteins detected) (Homo sapiens, UniProt P08174)", "conditions": "protein CD55; U3A cells"}, "[6]": {"target": "proteins of U3A human fibrosarcoma cells (4462 proteins detected) (Homo sapiens, UniProt P11717)", "sequence (P11717 41-2491)": "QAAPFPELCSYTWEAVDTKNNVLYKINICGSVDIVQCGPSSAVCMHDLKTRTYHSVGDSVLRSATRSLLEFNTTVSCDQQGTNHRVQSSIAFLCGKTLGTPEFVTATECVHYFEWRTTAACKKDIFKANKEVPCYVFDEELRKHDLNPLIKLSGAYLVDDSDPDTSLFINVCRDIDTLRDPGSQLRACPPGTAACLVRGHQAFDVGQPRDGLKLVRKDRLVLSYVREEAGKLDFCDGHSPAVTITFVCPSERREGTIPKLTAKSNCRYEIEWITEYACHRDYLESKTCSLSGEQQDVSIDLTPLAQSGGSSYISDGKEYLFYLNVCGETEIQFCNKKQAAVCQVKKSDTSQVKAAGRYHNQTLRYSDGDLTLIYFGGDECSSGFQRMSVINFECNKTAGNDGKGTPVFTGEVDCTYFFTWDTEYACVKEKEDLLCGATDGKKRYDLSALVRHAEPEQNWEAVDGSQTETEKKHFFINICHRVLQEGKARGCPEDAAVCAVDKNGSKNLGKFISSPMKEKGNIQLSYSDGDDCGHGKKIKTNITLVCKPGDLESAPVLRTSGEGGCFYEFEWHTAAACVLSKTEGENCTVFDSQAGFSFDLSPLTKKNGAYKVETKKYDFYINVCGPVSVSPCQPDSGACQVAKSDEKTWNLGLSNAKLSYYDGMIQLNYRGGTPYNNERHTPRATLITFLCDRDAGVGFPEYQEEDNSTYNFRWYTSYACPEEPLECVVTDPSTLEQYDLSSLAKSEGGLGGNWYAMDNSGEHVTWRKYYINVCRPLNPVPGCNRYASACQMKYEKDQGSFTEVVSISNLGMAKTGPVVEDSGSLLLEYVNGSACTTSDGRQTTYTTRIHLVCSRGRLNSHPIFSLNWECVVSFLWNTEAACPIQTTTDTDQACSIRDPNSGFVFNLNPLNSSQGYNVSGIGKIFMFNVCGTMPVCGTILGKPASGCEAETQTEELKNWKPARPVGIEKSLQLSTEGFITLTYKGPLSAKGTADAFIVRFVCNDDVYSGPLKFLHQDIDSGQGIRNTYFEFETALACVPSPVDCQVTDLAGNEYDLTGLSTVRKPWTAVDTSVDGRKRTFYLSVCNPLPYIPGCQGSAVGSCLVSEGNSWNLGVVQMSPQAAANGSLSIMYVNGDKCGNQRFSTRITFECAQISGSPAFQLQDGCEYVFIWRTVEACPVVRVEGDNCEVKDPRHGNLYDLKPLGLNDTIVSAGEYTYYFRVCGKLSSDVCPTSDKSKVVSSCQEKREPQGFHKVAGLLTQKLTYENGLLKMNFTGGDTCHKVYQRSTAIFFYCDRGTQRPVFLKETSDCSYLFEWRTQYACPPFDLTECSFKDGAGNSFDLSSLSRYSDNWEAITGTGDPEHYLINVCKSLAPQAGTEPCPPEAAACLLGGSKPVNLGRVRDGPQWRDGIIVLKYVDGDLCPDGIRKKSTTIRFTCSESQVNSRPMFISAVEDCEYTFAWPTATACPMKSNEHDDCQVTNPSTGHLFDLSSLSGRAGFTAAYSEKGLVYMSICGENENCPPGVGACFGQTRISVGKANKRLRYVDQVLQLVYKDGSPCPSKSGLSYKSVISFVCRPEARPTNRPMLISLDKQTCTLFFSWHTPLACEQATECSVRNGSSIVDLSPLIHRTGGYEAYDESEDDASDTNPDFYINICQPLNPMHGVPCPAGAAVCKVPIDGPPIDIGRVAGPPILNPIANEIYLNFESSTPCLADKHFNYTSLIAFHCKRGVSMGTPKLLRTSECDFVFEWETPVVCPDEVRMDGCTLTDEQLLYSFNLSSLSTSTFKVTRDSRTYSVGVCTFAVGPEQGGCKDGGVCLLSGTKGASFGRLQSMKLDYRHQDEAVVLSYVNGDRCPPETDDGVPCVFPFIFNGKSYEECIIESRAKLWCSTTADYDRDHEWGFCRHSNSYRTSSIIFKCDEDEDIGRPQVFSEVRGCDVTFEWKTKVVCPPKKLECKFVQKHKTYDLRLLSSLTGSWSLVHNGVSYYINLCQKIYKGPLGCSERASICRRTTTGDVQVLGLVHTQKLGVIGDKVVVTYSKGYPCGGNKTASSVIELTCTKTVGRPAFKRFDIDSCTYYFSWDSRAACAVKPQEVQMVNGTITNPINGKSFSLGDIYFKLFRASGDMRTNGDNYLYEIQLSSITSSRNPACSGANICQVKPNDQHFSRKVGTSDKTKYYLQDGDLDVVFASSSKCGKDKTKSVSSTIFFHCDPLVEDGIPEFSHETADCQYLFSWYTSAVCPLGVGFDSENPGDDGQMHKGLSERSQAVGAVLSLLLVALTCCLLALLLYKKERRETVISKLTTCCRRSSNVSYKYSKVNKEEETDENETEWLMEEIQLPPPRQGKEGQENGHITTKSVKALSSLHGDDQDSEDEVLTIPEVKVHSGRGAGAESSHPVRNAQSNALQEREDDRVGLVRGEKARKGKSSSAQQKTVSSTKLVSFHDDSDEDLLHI", "conditions": "protein IGF2R; soluble abundance after heat, U3A cells"}, "[7]": {"target": "proteins of U3A human fibrosarcoma cells (4462 proteins detected) (Homo sapiens, UniProt P29034)", "sequence (P29034 whole entry)": "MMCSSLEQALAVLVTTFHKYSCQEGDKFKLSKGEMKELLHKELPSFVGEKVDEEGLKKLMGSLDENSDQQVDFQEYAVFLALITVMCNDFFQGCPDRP", "conditions": "protein S100A2, U3A cells"}, "[8]": {"target": "proteins of U3A human fibrosarcoma cells (4462 proteins detected) (Homo sapiens, UniProt P29317)", "conditions": "protein EPHA2; soluble abundance after heat, U3A cells"}, "[9]": {"target": "proteins of U3A human fibrosarcoma cells (4462 proteins detected) (Homo sapiens, UniProt P29353)", "conditions": "protein SHC1; U3A cells"}, "[10]": {"target": "proteins of U3A human fibrosarcoma cells (4462 proteins detected) (Homo sapiens, UniProt P32320)", "sequence (P32320 whole entry)": "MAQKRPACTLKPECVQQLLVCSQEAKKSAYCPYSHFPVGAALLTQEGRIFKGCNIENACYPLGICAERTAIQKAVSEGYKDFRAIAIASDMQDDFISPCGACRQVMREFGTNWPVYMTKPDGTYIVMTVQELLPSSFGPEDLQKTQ", "conditions": "protein CDA, U3A cells"}, "[11]": {"target": "proteins of U3A human fibrosarcoma cells (4462 proteins detected) (Homo sapiens, UniProt P34896)", "conditions": "protein SHMT1, U3A cells"}, "[12]": {"target": "proteins of U3A human fibrosarcoma cells (4462 proteins detected) (Homo sapiens, UniProt P49756)", "conditions": "protein RBM25; U3A cells"}, "[13]": {"target": "proteins of U3A human fibrosarcoma cells (4462 proteins detected) (Homo sapiens, UniProt P49916)", "sequence (P49916 43-1009)": "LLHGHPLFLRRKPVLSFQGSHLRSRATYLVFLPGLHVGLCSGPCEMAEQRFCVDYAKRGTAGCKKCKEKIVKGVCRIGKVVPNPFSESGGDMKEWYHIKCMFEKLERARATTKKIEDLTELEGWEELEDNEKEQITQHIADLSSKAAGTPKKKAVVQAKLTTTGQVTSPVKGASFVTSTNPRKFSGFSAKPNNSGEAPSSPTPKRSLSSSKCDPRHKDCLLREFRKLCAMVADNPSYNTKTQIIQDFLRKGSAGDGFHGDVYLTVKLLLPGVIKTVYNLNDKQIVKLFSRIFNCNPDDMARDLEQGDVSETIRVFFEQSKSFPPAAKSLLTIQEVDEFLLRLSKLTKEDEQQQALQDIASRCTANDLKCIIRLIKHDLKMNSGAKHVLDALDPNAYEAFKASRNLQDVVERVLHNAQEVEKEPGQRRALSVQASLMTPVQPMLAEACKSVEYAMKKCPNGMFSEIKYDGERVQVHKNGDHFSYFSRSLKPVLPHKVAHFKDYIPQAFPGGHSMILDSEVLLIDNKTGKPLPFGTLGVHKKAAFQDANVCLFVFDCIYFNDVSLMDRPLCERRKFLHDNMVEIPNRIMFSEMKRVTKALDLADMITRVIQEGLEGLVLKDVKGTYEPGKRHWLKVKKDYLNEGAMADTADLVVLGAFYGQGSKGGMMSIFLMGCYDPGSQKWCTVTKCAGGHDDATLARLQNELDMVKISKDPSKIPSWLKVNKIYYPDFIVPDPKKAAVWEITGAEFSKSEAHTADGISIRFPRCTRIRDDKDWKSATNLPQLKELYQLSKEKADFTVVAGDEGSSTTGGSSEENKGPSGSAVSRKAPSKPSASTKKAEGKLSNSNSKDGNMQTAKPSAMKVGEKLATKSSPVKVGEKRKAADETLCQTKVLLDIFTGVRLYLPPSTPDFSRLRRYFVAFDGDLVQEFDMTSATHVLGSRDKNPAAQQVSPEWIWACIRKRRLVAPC", "conditions": "protein LIG3; U3A cells"}, "[14]": {"target": "proteins of U3A human fibrosarcoma cells (4462 proteins detected) (Homo sapiens, UniProt P51648)", "conditions": "protein ALDH3A2; U3A cells"}, "[15]": {"target": "proteins of U3A human fibrosarcoma cells (4462 proteins detected) (Homo sapiens, UniProt P63096)", "conditions": "protein GNAI1; soluble abundance after heat, U3A cells"}, "[16]": {"target": "proteins of U3A human fibrosarcoma cells (4462 proteins detected) (Homo sapiens, UniProt P78559)", "conditions": "protein MAP1A, U3A cells"}, "[17]": {"target": "proteins of U3A human fibrosarcoma cells (4462 proteins detected) (Homo sapiens, UniProt Q13162)", "conditions": "protein PRDX4; U3A cells"}, "[18]": {"target": "proteins of U3A human fibrosarcoma cells (4462 proteins detected) (Homo sapiens, UniProt Q8IVD9)", "conditions": "protein NUDCD3; soluble abundance after heat, U3A cells"}, "[19]": {"target": "proteins of U3A human fibrosarcoma cells (4462 proteins detected) (Homo sapiens, UniProt Q8N465)", "conditions": "protein D2HGDH; soluble abundance after heat, U3A cells"}, "[20]": {"target": "proteins of U3A human fibrosarcoma cells (4462 proteins detected) (Homo sapiens, UniProt Q92692)", "conditions": "protein PVRL2; U3A cells"}, "[21]": {"target": "proteins of U3A human fibrosarcoma cells (4462 proteins detected) (Homo sapiens, UniProt Q9BY32)", "conditions": "protein ITPA; soluble abundance after heat, U3A cells"}, "[22]": {"target": "proteins of U3A human fibrosarcoma cells (4462 proteins detected) (Homo sapiens, UniProt Q9HAS0)", "conditions": "protein C17orf75; U3A cells"}, "[23]": {"target": "proteins of U3A human fibrosarcoma cells (4462 proteins detected) (Homo sapiens, UniProt Q9NVA2)", "conditions": "protein SEPT11, U3A cells"}, "[24]": {"target": "proteins of U3A human fibrosarcoma cells (4462 proteins detected) (Homo sapiens, UniProt Q9NXV6)", "sequence (Q9NXV6 whole entry)": "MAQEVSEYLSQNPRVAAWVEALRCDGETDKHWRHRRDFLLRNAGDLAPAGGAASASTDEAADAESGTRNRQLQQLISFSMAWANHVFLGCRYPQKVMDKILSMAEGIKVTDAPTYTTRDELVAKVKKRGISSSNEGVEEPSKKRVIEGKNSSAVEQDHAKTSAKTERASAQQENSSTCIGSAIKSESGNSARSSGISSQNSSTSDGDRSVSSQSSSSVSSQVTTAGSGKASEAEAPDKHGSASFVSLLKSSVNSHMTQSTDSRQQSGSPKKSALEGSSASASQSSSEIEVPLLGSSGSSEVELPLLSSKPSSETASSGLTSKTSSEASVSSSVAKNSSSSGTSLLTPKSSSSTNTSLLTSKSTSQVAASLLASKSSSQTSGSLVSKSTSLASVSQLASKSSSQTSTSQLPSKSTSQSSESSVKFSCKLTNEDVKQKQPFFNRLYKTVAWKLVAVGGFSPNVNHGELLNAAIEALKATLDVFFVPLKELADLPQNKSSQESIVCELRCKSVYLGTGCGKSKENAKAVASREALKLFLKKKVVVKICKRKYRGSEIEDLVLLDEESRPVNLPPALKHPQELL", "conditions": "protein CDKN2AIP; U3A cells"}, "[25]": {"target": "proteins of U3A human fibrosarcoma cells (4462 proteins detected) (Homo sapiens, UniProt Q9UHN1)", "conditions": "protein POLG2; soluble abundance after heat, U3A cells"}, "[26]": {"target": "proteins of U3A human fibrosarcoma cells (4462 proteins detected) (Homo sapiens, UniProt Q9ULX3)", "conditions": "protein NOB1; U3A cells"}, "[27]": {"target": "proteins of U3A human fibrosarcoma cells (4462 proteins detected) (Homo sapiens, UniProt Q9UMS4)", "sequence (Q9UMS4 whole entry)": "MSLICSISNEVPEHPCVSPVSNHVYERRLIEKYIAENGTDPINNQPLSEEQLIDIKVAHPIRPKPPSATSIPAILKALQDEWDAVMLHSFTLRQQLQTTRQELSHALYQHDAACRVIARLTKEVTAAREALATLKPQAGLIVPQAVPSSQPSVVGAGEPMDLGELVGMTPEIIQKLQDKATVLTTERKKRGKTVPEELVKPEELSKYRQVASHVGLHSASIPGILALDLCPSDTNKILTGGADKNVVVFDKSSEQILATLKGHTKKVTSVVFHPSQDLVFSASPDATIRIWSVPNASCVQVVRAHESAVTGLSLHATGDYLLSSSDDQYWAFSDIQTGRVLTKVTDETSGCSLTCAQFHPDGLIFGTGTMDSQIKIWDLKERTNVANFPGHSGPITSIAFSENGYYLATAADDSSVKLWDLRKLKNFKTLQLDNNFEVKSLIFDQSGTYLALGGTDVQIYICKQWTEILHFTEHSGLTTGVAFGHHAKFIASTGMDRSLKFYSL", "conditions": "protein PRPF19; U3A cells"}, "[28]": {"target": "proteins of U3A human fibrosarcoma cells (4462 proteins detected) (Homo sapiens, UniProt Q9Y3T9)", "conditions": "protein NOC2L; soluble abundance after heat, U3A cells"}, "[29]": {"target": "proteins of U3A human fibrosarcoma cells (4462 proteins detected) (Homo sapiens, UniProt Q9Y5J6)", "conditions": "protein TIMM10B; U3A cells"}, "[30]": {"target": "proteins of U3A human fibrosarcoma cells (4462 proteins detected) (Homo sapiens, UniProt Q9Y6G3)", "conditions": "protein MRPL42; soluble abundance after heat, U3A cells"}},
  "data": [
    {"smiles": "CCc1nc(N)nc(N)c1-c1ccc(Cl)cc1", "note": "[pyrimethamine]", "values": [
      {"measurement": "Log2 (PYR/DMSO)", "setting": "[1]", "result": 0.15},
      {"measurement": "Log2 (PYR/DMSO), DSCR3", "setting": "[2]", "result": -0.16},
      {"measurement": "Log2 (PYR/DMSO)", "setting": "[3]", "result": 0.22},
      {"measurement": "Log2 (PYR/DMSO)", "setting": "[4]", "result": -0.04},
      {"measurement": "Log2 (PYR/DMSO)", "setting": "[5]", "result": 0.20},
      {"measurement": "Log2 (PYR/DMSO)", "setting": "[6]", "result": 0.15},
      {"measurement": "Log2 (PYR/DMSO)", "setting": "[7]", "result": -0.04},
      {"measurement": "Log2 (PYR/DMSO)", "setting": "[8]", "result": 0.15},
      {"measurement": "Log2 (PYR/DMSO)", "setting": "[9]", "result": 0.19},
      {"measurement": "Log2 (PYR/DMSO)", "setting": "[10]", "result": -0.04},
      {"measurement": "Log2 (PYR/DMSO)", "setting": "[11]", "result": -0.05},
      {"measurement": "Log2 (PYR/DMSO)", "setting": "[12]", "result": 0.21},
      {"measurement": "Log2 (PYR/DMSO)", "setting": "[13]", "result": 0.16},
      {"measurement": "Log2 (PYR/DMSO)", "setting": "[14]", "result": 0.16},
      {"measurement": "Log2 (PYR/DMSO)", "setting": "[15]", "result": 0.14},
      {"measurement": "Log2 (PYR/DMSO)", "setting": "[16]", "result": -0.04},
      {"measurement": "Log2 (PYR/DMSO)", "setting": "[17]", "result": 0.16},
      {"measurement": "Log2 (PYR/DMSO)", "setting": "[18]", "result": 0.15},
      {"measurement": "Log2 (PYR/DMSO)", "setting": "[19]", "result": 0.15},
      {"measurement": "Log2 (PYR/DMSO)", "setting": "[20]", "result": 0.17},
      {"measurement": "Log2 (PYR/DMSO)", "setting": "[21]", "result": 0.15},
      {"measurement": "Log2 (PYR/DMSO)", "setting": "[22]", "result": 0.18},
      {"measurement": "Log2 (PYR/DMSO)", "setting": "[23]", "result": -0.04},
      {"measurement": "Log2 (PYR/DMSO)", "setting": "[24]", "result": 0.16},
      {"measurement": "Log2 (PYR/DMSO)", "setting": "[25]", "result": 0.15},
      {"measurement": "Log2 (PYR/DMSO)", "setting": "[26]", "result": 0.15},
      {"measurement": "Log2 (PYR/DMSO)", "setting": "[27]", "result": 0.17},
      {"measurement": "Log2 (PYR/DMSO)", "setting": "[28]", "result": 0.14},
      {"measurement": "Log2 (PYR/DMSO)", "setting": "[29]", "result": 0.18},
      {"measurement": "Log2 (PYR/DMSO)", "setting": "[30]", "result": 0.14}
    ]}
  ]
}
